Target: T1, ANO1 (Homo sapiens, UniProt Q5XXA6)
T1 sequence (Q5XXA6 1-986): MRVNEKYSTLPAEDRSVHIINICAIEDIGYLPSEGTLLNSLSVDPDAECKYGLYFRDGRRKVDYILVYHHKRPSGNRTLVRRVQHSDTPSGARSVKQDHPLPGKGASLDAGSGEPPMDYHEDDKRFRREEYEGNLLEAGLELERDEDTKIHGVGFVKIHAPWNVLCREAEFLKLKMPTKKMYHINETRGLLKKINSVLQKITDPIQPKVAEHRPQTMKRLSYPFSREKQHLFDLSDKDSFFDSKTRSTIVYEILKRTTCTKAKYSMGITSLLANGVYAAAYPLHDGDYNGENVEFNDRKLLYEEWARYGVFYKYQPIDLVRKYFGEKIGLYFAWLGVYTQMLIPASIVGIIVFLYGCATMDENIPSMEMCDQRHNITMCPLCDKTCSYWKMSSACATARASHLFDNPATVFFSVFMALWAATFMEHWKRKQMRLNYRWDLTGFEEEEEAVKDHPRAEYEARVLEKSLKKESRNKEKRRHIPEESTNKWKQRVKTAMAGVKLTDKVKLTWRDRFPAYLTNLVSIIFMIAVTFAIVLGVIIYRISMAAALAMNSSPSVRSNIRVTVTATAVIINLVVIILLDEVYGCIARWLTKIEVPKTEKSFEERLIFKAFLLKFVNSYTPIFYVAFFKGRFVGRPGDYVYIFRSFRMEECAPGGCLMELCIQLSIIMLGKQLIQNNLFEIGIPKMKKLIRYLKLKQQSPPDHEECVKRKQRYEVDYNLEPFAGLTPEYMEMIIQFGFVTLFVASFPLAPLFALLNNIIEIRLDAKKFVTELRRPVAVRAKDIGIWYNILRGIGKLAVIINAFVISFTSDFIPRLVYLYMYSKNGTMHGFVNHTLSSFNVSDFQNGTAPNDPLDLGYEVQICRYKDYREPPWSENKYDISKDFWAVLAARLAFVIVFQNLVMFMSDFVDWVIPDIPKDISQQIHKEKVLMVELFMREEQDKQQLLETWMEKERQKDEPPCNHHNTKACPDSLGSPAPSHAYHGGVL
Assay: YFP fluorescence quenching in FRT cells expressing human ANO1; also Ussing chamber and whole-cell patch clamp in HEK293T
Assay type: cell-based

Compound	IC50 [µM]
Oc1ccc(/C=C\c2cc(O)cc(O)c2)cc1 [cis-resveratrol]	10.6
Oc1ccc(/C=C/c2cc(O)cc(O)c2)cc1 [trans-resveratrol]	102

Source: paper PMC9862168, “Inhibition of ANO1 by Cis- and Trans-Resveratrol and Their Anticancer Activity in Human Prostate Cancer PC-3 Cells” (International Journal of Molecular Sciences, 2023)
